“And” between values parts separate entries of the source, which are not always exact repeats. Equal values may be shown once.
How the values were obtained:
[1] = target: T1, androgen receptor (rat ventral prostate cytosol) (Rattus norvegicus, UniProt P15207); assay: Androgen Receptor Binding Using Rat Ventral Prostate Cytosol; conditions: for % Inhibition, Androgen Receptor Binding (Rat Cytosol) / inhibition at 3 µM: Concentration 3000 nM
T1 construct: from tissue; host or cells: ventral prostate cytosol of castrated male Sprague Dawley or Wistar rats
T1 sequence (P15207 1-902): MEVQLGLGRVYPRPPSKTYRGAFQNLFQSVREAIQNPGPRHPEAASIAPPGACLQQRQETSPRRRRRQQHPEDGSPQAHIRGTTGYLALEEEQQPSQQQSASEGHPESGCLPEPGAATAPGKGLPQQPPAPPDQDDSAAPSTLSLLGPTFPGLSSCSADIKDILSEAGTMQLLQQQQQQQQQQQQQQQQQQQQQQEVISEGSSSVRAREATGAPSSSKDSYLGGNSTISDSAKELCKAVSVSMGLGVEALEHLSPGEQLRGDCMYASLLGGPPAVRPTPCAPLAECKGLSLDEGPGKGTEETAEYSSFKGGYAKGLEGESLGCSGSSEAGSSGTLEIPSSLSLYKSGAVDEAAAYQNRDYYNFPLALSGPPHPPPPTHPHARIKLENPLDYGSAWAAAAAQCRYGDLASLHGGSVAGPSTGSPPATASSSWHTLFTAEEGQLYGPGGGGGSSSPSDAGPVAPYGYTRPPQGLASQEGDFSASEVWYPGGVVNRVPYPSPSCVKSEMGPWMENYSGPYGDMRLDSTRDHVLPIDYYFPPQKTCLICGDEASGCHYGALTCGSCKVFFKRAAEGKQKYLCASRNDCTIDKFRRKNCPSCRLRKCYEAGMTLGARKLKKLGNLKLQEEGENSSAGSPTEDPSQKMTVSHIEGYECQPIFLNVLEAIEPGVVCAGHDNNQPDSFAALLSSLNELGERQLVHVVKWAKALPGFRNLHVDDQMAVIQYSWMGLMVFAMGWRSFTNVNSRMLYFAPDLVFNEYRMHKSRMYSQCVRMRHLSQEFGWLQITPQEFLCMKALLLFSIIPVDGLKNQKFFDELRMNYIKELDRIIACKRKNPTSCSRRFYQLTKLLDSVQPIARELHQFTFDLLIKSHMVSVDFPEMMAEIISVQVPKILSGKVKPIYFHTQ
In short: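 Cytosol from castrated rat ventral prostate was incubated overnight at 4°C with 0.5 nM [3H] tracer and compound in TED buffer (10 mM Tris-HCl pH 7.4, molybdate, EDTA, DTT, glycerol).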

[2] = tested on: testosterone-enhanced ventral prostate and seminal vesicle weights; assay: Ventral Prostate and Seminal Vesicle Weight in vivo Assay; design: species or system rat; conditions: immature castrated male Sprague Dawley rats, once daily for five days, usually orally 40 mg/kg, with testosterone propionate 2 mg/kg s.c. Further: key: 'active' if the non weight adjusted prostate weight was ≦40 mg or the % Inhibition prostate weight, body weight adjusted was ≧40% @ 2 mg/day dosage; ID50's, if determined, of ≦15 mg/day also indicated an 'active' compound; listed herein as 'inactive' as they did not meet the specified criteria defined above.
In short: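 Wet weights of ventral prostate and seminal vesicles were taken on day six. Castrated immature male Sprague Dawley rats had received five daily doses of testosterone propionate (2 mg/kg s.c.) together with test compound, typically 40 mg/kg orally. Activity was scored from absolute prostate weight or body-weight-adjusted % inhibition.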

| Structure (SMILES) | inhibition at 3 µM [1] [%] | active / inactive: inhibition of testosterone-enhanced prostate weight [2] | further results |
| --- | --- | --- | --- |
| CCS(=O)(=O)CC(C)(O)c1cc2cc([N+](=O)[O-])c(C(F)(F)F)cc2[nH]1 (stereo not drawn) [Compound 151] |  |  | % Inhibition, Androgen Receptor Binding (Rat Cytosol) ([1]; 3 µM): 100% |
| CC(O)(CSC1CCCC1)c1cc2cc([N+](=O)[O-])c(C(F)(F)F)cc2[nH]1 (stereo not drawn) [Compound 173] | 32 | inactive |  |
| CC(O)(CS(C)(=O)=O)c1cc2cc(Cl)c(C(F)(F)F)cc2[nH]1 (stereo not drawn) [Compound 138] | 110 | inactive |  |
| CSCCC(C)(O)c1cc2cc([N+](=O)[O-])c(C(F)(F)F)cc2[nH]1 (stereo not drawn) [Compound 47] | 81 | inactive |  |
| COc1ccc(SCC(C)(O)c2cc3cc(Cl)c(C(F)(F)F)cc3[nH]2)cc1 (stereo not drawn) [Compound 131] | 120 | inactive |  |
| CC(O)(CS(C)(=O)=O)c1cc2cc([N+](=O)[O-])c(C(F)(F)F)cc2[nH]1 (stereo not drawn) [Compound 140] |  | active | % Inhibition, Androgen Receptor Binding (Rat Cytosol) ([1]; 3 µM): 47% |
| CC(C)CSCC(C)(O)c1cc2cc([N+](=O)[O-])c(C(F)(F)F)cc2[nH]1 (stereo not drawn) [Compound 170] | 80 | active |  |
| CCSCC(C)(O)c1cc2cc([N+](=O)[O-])c(C(F)(F)F)cc2[nH]1 (single isomer, unassigned) [Compound 150] |  |  | % Inhibition, Androgen Receptor Binding (Rat Cytosol) ([1]; 3 µM): 120% |
| CC(O)(C[S+]([O-])Cc1ccccc1)c1cc2cc([N+](=O)[O-])c(C(F)(F)F)cc2[nH]1 (mixture of isomers) [Compound 161] |  | inactive | % Inhibition, Androgen Receptor Binding (Rat Cytosol) [1]: 39% |
| CC(C)SCC(C)(O)c1cc2cc([N+](=O)[O-])c(C(F)(F)F)cc2[nH]1 (stereo not drawn) [Compound 164] | 52 | inactive |  |
| CCCSCC(C)(O)c1cc2cc([N+](=O)[O-])c(C(F)(F)F)cc2[nH]1 (stereo not drawn) [Compound 168] | 41 | inactive |  |
| CC(O)(CS(C)(=O)=O)c1cc2cc([N+](=O)[O-])c(C(F)(F)F)cc2[nH]1 (stereo not drawn) [Compound 147] |  |  | % Inhibition, Androgen Receptor Binding (Rat Cytosol) ([1]; 3 µM): 68% |
| CCSCC(C)(O)c1cc2cc([N+](=O)[O-])c(C(F)(F)F)cc2[nH]1 (racemic) [Compound 142] | 92 | active |  |
| CCSCC(C)(O)c1cc2cc([N+](=O)[O-])c(C(F)(F)F)cc2n1S(C)(=O)=O (stereo not drawn) [Compound 141] | -4.5 | inactive |  |
| CC(O)(CSc1ccc(N)cc1)c1cc2cc(Cl)c(C(F)(F)F)cc2[nH]1 (stereo not drawn) [Compound 104] | 110 | inactive | inhibition at 1 µM ([1]; Concentration 1000 nM, read-out: % Inhibition, Androgen Receptor Binding (Rat Cytosol)): 94.5% |
| CC(O)(CSCc1ccccc1)c1cc2cc([N+](=O)[O-])c(C(F)(F)F)cc2[nH]1 (stereo not drawn) [Compound 160] | 65 | inactive |  |
| CSCC(C)(O)c1cc2cc([N+](=O)[O-])c(C(F)(F)F)cc2[nH]1 (single isomer, unassigned) [Compound 144] |  |  | % Inhibition, Androgen Receptor Binding (Rat Cytosol) ([1]; 3 µM): 79% |
| CSCC(C)(O)c1cc2cc(Cl)c(C(F)(F)F)cc2[nH]1 (stereo not drawn) [Compound 135] | 130 | inactive |  |
| CC(O)(CSc1ccc(O)cc1)c1cc2cc(Cl)c(C(F)(F)F)cc2[nH]1 (stereo not drawn) [Compound 120] | 130 |  |  |

| Structure (SMILES) | inhibition at 3 µM [1] [%] | active / inactive: inhibition of testosterone-enhanced prostate weight [2] | further results |
| --- | --- | --- | --- |
| CCSCC(O)(CC)c1cc2cc([N+](=O)[O-])c(C(F)(F)F)cc2[nH]1 (stereo not drawn) [Compound 169] | 62 | active |  |
| CC(O)(CS(=O)(=O)c1ccc(O)cc1)c1cc2cc(Cl)c(C(F)(F)F)cc2[nH]1 (stereo not drawn) [Compound 121] | 86 |  |  |
| CC(O)(CSc1ccc([N+](=O)[O-])cc1)c1cc2cc(Cl)c(C(F)(F)F)cc2[nH]1 (stereo not drawn) [Compound 122] | 83.5 |  |  |
| CSCC(C)(O)c1cc2cc(C#N)c(C(F)(F)F)cc2[nH]1 (stereo not drawn) [Compound 136] | 38 | active |  |
| CSCC(C)(O)c1cc2cc([N+](=O)[O-])c(C(F)(F)F)cc2[nH]1 (single isomer, unassigned) [Compound 145] |  |  | % Inhibition, Androgen Receptor Binding (Rat Cytosol) ([1]; 3 µM): 58% |
| CC[S+]([O-])C[C@](C)(O)c1cc2cc([N+](=O)[O-])c(C(F)(F)F)cc2[nH]1 (stereo in doubt) [Compound 155, 1-Ethanesulfinyl-2-(5-nitro-6-trifluoromethyl-1H-indol-2-yl)-propan-2-ol] | -6.1 | inactive |  |
| CCSCC(O)c1cc2cc([N+](=O)[O-])c(C(F)(F)F)cc2[nH]1 (stereo not drawn) [Compound 158] | 52 | inactive |  |
| CC(O)(CSCC(F)(F)F)c1cc2cc([N+](=O)[O-])c(C(F)(F)F)cc2[nH]1 (stereo not drawn) [Compound 171] | 18 | active | IC50 ([1]; read-out: IC50 (nM), Androgen Receptor Binding (Rat Cytosol)): 320 nM |
| CCS(=O)(=O)C[C@](C)(O)c1cc2cc([N+](=O)[O-])c(C(F)(F)F)cc2[nH]1 [Compound 156, 1-Ethanesulfonyl-2-(5-nitro-6-trifluoromethyl-1H-indol-2-yl)-propan-2-ol] | 66 | inactive | % Inhibition, Androgen Receptor Binding (Rat Cytosol) ([1]; 3 µM): 67% |
| CCS(=O)(=O)CC(C)(O)c1cc2cc([N+](=O)[O-])c(C(F)(F)F)cc2[nH]1 (stereo not drawn) [Compound 143] |  | active | % Inhibition, Androgen Receptor Binding (Rat Cytosol) ([1]; 3 µM): 14% |
| CCSCC(C)(O)c1cc2cc([N+](=O)[O-])c(C(F)(F)F)cc2n1C (racemic) [Compound 165] | 52 | active |  |
| CCC(O)(CS(=O)(=O)CC)c1cc2cc([N+](=O)[O-])c(C(F)(F)F)cc2[nH]1 (stereo not drawn) [Compound 176] | 90 | active |  |
| CC(O)(CS(C)(=O)=O)c1cc2cc([N+](=O)[O-])c(C(F)(F)F)cc2[nH]1 (stereo not drawn) [Compound 148] |  |  | % Inhibition, Androgen Receptor Binding (Rat Cytosol) ([1]; 3 µM): 94% |
| COc1ccc(S(=O)(=O)CC(C)(O)c2cc3cc(Cl)c(C(F)(F)F)cc3[nH]2)cc1 (racemic) [Compound 129] |  | inactive | % Inhibition, Androgen Receptor Binding (Rat Cytosol) [1]: 39.5% |
| CC(O)(CCS(C)(=O)=O)c1cc2cc([N+](=O)[O-])c(C(F)(F)F)cc2[nH]1 (stereo not drawn) [Compound 49] | 48 | inactive |  |
| CC(O)(CS(=O)(=O)c1ccc(N)cc1)c1cc2cc(Cl)c(C(F)(F)F)cc2[nH]1 (stereo not drawn) [Compound 118] | 80.5 | inactive |  |
| CCSCC(C)(O)c1cc2cc([N+](=O)[O-])c(C(F)(F)F)cc2[nH]1 (single isomer, unassigned) [Compound 149] |  |  | % Inhibition, Androgen Receptor Binding (Rat Cytosol) ([1]; 3 µM): 94% and 77% |
| COc1ccc(SCC(C)(O)c2cc3cc(Cl)c(C(F)(F)F)cc3n2S(C)(=O)=O)cc1 (racemic) [Compound 130] |  |  | % Inhibition, Androgen Receptor Binding (Rat Cytosol) [1]: 32.55% |
